# Entries after “also recorded” stand apart in the source; their conditions may differ.
# How the values were obtained:
# [1] = Stability study in climate chamber (48-72 h, 40° C./75% RH), form assigned by XRPD; conditions: for XRPD Form c: form assigned after the stability studies / XRPD Form b: form assigned after the stability studies: at 40° C./75% RH; for Stability after storage in a climate chamber: 48 to 72 hours at 40 degrees centigrade and 75% relative humidity; for XRPD Form b: form assigned after the stability studies: samples from anti-solvent addition, label = form before stability
# Method: (§1) Solubility assessment experiments were carried out in a variety of solvents followed by storage in a climate chamber for 48 to 72 hours at 40 degrees centigrade and 75% relative humidity.
# [2] = Solubility assessment experiments in organic solvents
# Method: as §1
# [3] = Storage of samples under ambient conditions, form assigned by XRPD; assay type: physicochemical
# tumors = conditions: cited from earlier work
# [4] = Concentration of saturated AR42 stock solutions (anti-solvent addition crystallization); assay type: physicochemical; conditions: equilibrated 24 hours, filtered
# Method: Tables 3-5 illustrate anti-solvent addition crystallization experiments conducted on the indicated Form. In this example, saturated solutions of AR42 were prepared in the following solvents: Acetone, 2-Butanone, Methanol, Ethanol, Isopropanol, Acetonitrile, 1,4-Dioxane and Dimethylformamide. Excess AR42 was added to the solvent and the suspension equilibrated for 24 hours. After equilibration, the suspension was filtered through a […] filter to remove particulate solids.
# An equal volume of anti-solvent selected from the following list was added to 300 μL of the saturated solutions of AR42: Toluene, Nitrobenzene, Nitromethane, Water, n-Heptane, Cyclohexane. An additional 300 μL of anti-solvent was added if no precipitation occurred. Aliquots of 300 μL of anti-solvent were added until precipitation occurred or the total volume was 1,200 μL of anti-solvent. The solution was allowed to incubate for 60 minutes at room temperature in between the addition of anti-solvent. If no precipitation occurred after the last addition of anti-solvents, samples were incubated for 24 hours at 4° C. Samples in which precipitation occurred were centrifuged for 10 minutes at 3000 rpm to separate the liquid from the solid. The liquid phase was removed and the solid phase dried and analyzed by XRPD. The solutions in which no precipitation occurred were placed under deep vacuum and dried to completion. Solids were collected and analysed by XRPD.
# [5] = 48-72 H, samples from cooling-evaporative crystallization, Table 7, label = form after recrystallization
# [6] = 1-1.5 weeks ambient, cooling-evaporative crystallization, Table 7, label = form after recrystallization
# [7] = 46-72 H, samples from solvent-drop grinding, Table 8, label = form after grinding
# [8] = 1-1.5 weeks ambient, cooling-evaporative crystallization, Table 6, label = form after recrystallization
# [9] = 1.5-2 weeks ambient, solvent-drop grinding, Table 8, label = form after grinding
# [10] = 48-72 H, samples from cooling-evaporative crystallization, Table 6, label = form after recrystallization
compound,measurement,setting,value
"CC(C)[C@H](C(=O)Nc1ccc(C(=O)NO)cc1)c1ccccc1 [Form B1, (S)—N-hydroxy-4-(3-methyl-2-phenylbutanamido)benzamide]",XRPD Form c: form assigned after the stability studies,[1]; [5],Form B1
same,Stability after storage in a climate chamber,[1],exhibited a particular degree of stability
same,Concentration,"[2]; Table 1, solvent Dimethyl-4-heptanone 2,6-",2 mg/mL
same,Concentration,"[2]; Table 2, solvent Chloroform",20.8 mg/mL
same,XRPD Form b: form assigned after storage under ambient conditions,[3]; [6],Form B1
CC(C)[C@H](C(=O)Nc1ccc(C(=O)NO)cc1)c1ccccc1 [Form B1_wet],XRPD Form c: form assigned after the stability studies,"[1]; 48-72 H, samples from slurry conversion, Table 9, label = form after slurry",Form A5a
same,Concentration,"[2]; Table 2, solvent Isophorone",243.7 mg/mL
same,XRPD Form b: form assigned after storage under ambient conditions,[3]; [6],Form B1_wet**
same,XRPD Form b: form assigned after storage under ambient conditions,"[3]; 1-1.5 weeks ambient, slurry conversion, Table 9, label = form after slurry",Form B1
"CC(C)[C@H](C(=O)Nc1ccc(C(=O)NO)cc1)c1ccccc1 [AR-42, (S)—N-hydroxy-4-(3-methyl-2-phenylbutanamido)benzamide]",Inhibitory effect in tumors,"tumors; breast, prostate, ovarian, blood cell, liver, and brain tumors",demonstrated inhibitory effect
same,Potency and activity compared to vorinostat (SAHA),tumors; solid tumors and hematological malignancies,greater potency and activity
same,Concentration,"[2]; Table 1, solvent Chloroform",<2 mg/mL
same,Concentration,"[2]; Table 1, solvent Nitromethane",1 mg/mL
same,Concentration,"[2]; Table 1, solvent Toluene",<1 mg/mL
same,Concentration,"[2]; Table 1, solvent Trifluoroethanol, 2,2,2-",7 mg/mL
same,Concentration (mg/mL) of saturated stock solution,[4]; stock solvent Acetone,175.9 mg/mL
same,Concentration (mg/mL) of saturated stock solution,[4]; stock solvent Acetonitrile,13.5 mg/mL
same,Concentration (mg/mL) of saturated stock solution,[4]; stock solvent Butanone 2-,130.7 mg/mL
same,Concentration (mg/mL) of saturated stock solution,"[4]; stock solvent Dimethylformamide N,N-",335 mg/mL
same,Concentration (mg/mL) of saturated stock solution,"[4]; stock solvent Dioxane, 1,4-",46.8 mg/mL
same,Concentration (mg/mL) of saturated stock solution,[4]; stock solvent Ethanol,134.1 mg/mL
same,Concentration (mg/mL) of saturated stock solution,[4]; stock solvent Propanol 2-,227.8 mg/mL
same,Concentration (mg/mL) of saturated stock solution,[4]; stock solvent methanol,390.5 mg/mL
CC(C)C(C(=O)Nc1ccc(C(=O)NO)cc1)c1ccccc1 (stereo not shown) [Form B1 + Form D1],Concentration,"[2]; Table 2, solvent Dioxane, 1,4-",32.3 mg/mL
CC(C)[C@H](C(=O)Nc1ccc(C(=O)NO)cc1)c1ccccc1 [Am_oily],XRPD Form b: form assigned after the stability studies,"[1]; 48-72 H, Table 5",Form A
same,Concentration,"[2]; Table 1, solvent NMP",482.5 mg/mL
"CC(C)[C@H](C(=O)Nc1ccc(C(=O)NO)cc1)c1ccccc1 [Form A, (S)—N-hydroxy-4-(3-methyl-2-phenylbutanamido)benzamide]",XRPD Form c: form assigned after the stability studies,[1]; [7],Form A
same,XRPD Form b: form assigned after the stability studies,"[1]; 48-72 H, Table 3",Form A
same,XRPD Form c: form assigned after the stability studies,[1]; [5],Form A
same,Concentration,"[2]; Table 2, solvent Amyl Ether",18.4 mg/mL
same,Concentration,"[2]; Table 2, solvent Dimethyl-4-heptanone 2,6-",20.3 mg/mL
same,Concentration,"[2]; Table 2, solvent Hexafluorobenzene",21.4 mg/mL
same,Concentration,"[2]; Table 2, solvent Nitromethane",21.2 mg/mL
same,Concentration,"[2]; Table 2, solvent Toluene",18.8 mg/mL
same,Concentration,"[2]; Table 2, solvent Trifluoroethanol, 2,2,2-",20.6 mg/mL
same,XRPD Form b: form assigned after storage under ambient conditions,[3]; [8],Form A
same,XRPD Form b: form assigned after storage under ambient conditions,[3]; [6],Form A
same,XRPD Form b: form assigned after storage under ambient conditions,"[3]; 1.5-2 weeks ambient, solvent-drop grinding, Table 8, label = form after grinding, ground with a drop of Octanol-1",Form A
same,XRPD Form b: form assigned after storage under ambient conditions,"[3]; 1.5-2 weeks ambient, solvent-drop grinding, Table 8, label = form after grinding, ground with a drop of Propyl acetate",Form A5a
CC(C)[C@H](C(=O)Nc1ccc(C(=O)NO)cc1)c1ccccc1 [Form A_wet],XRPD Form c: form assigned after the stability studies,[1]; [7],Form A
same,XRPD Form b: form assigned after the stability studies,"[1]; 48-72 H, Table 3",Form A + Am*
same,Concentration,"[2]; Table 1, solvent Hexafluorobenzene",<1 mg/mL
same,XRPD Form b: form assigned after storage under ambient conditions,"[3]; 1-1.5 weeks ambient, cooling-evaporative crystallization, Table 6, label = form after recrystallization, experiment ML7, solvent 1 Dichloroethane",Form A
same,XRPD Form b: form assigned after storage under ambient conditions,"[3]; 1-1.5 weeks ambient, cooling-evaporative crystallization, Table 6, label = form after recrystallization, experiment ML8, solvent 1 Fluorbenzene",Form A_wet**
same,XRPD Form b: form assigned after storage under ambient conditions,"[3]; 1-1.5 weeks ambient, cooling-evaporative crystallization, Table 6, label = form after recrystallization, experiment ML32, solvent 1 Heptane, N-",Form U1 + Am*
same,XRPD Form b: form assigned after storage under ambient conditions,[3]; [9],Form A_wet**
"CC(C)[C@H](C(=O)Nc1ccc(C(=O)NO)cc1)c1ccccc1 [Form C, (S)—N-hydroxy-4-(3-methyl-2-phenylbutanamido)benzamide]",Concentration,"[2]; Table 2, solvent Dimethyl Sulfoxide",472.5 mg/mL
CC(C)[C@H](C(=O)Nc1ccc(C(=O)NO)cc1)c1ccccc1 [Wet sample],XRPD Form b: form assigned after the stability studies,"[1]; 48-72 H, Table 3",Form A + Am*; also recorded: Form W + Am*
same,XRPD Form c: form assigned after the stability studies,[1]; [10],Form A
same,XRPD Form b: form assigned after storage under ambient conditions,[3]; [8],Form D1_wet**
CC(C)C(C(=O)Nc1ccc(C(=O)NO)cc1)c1ccccc1 (stereo not shown) [Form A + Am],XRPD Form c: form assigned after the stability studies,[1]; [10],Form A + Am*
same,Concentration,"[2]; Table 1, solvent Amyl Ether",<1 mg/mL
same,XRPD Form b: form assigned after storage under ambient conditions,"[3]; 1-1.5 weeks ambient, cooling-evaporative crystallization, Table 6, label = form after recrystallization, experiment ML13, solvent 1 Butyl Acetate",Form U1 + Am*
same,XRPD Form b: form assigned after storage under ambient conditions,"[3]; 1-1.5 weeks ambient, cooling-evaporative crystallization, Table 6, label = form after recrystallization, experiment ML14, solvent 1 Chlorobenzene",Form A_wet**
"CC(C)[C@H](C(=O)Nc1ccc(C(=O)NO)cc1)c1ccccc1 [Form L1, (S)—N-hydroxy-4-(3-methyl-2-phenylbutanamido)benzamide]",XRPD Form c: form assigned after the stability studies,[1]; [10],Form L1
same,XRPD Form c: form assigned after the stability studies,[1]; [5],Form L1
same,Stability after storage in a climate chamber,[1],exhibited a particular degree of stability
same,XRPD Form b: form assigned after storage under ambient conditions,[3]; [8],Form L1
same,XRPD Form b: form assigned after storage under ambient conditions,[3]; [6],Form L1
CC(C)C(C(=O)Nc1ccc(C(=O)NO)cc1)c1ccccc1 (stereo not shown) [Form A + Form B1],XRPD Form c: form assigned after the stability studies,[1]; [7],Form A
same,XRPD Form c: form assigned after the stability studies,[1]; [10],Form A_wet**
same,Concentration,"[2]; Table 2, solvent Acetone",108.9 mg/mL
same,XRPD Form b: form assigned after storage under ambient conditions,[3]; [8],Form B1_wet**
same,XRPD Form b: form assigned after storage under ambient conditions,[3]; [9],Form A_wet**
"CC(C)[C@H](C(=O)Nc1ccc(C(=O)NO)cc1)c1ccccc1 [Form D1, (S)—N-hydroxy-4-(3-methyl-2-phenylbutanamido)benzamide]",XRPD Form c: form assigned after the stability studies,[1]; [7],Form A
same,XRPD Form b: form assigned after the stability studies,"[1]; 48-72 H, Table 5",Form D2 + Am*
same,XRPD Form c: form assigned after the stability studies,[1]; [5],Form A
same,Concentration,"[2]; Table 2, solvent Nitrobenzene",19.7 mg/mL
same,XRPD Form b: form assigned after storage under ambient conditions,[3]; [6],Form D1
same,XRPD Form b: form assigned after storage under ambient conditions,[3]; [9],Form D1
